Earlier results as cited in patent publication US9717692B2, “Effervescent formulations comprising dexketoprofen” (priority 2011, dated 2017).

Settings: Sunshine et al., WO89/046558

C[C@H](C(=O)O)c1cccc(C(=O)c2ccccc2)c1 [Dexketoprofen, (+)-(S)-2-(3-Benzoylphenyl) propionic acid]
effect compared with racemic ketoprofen of the same amount: quicker and stronger effect
